The values below come from ChEMBL document CHEMBL1121575, “Synthesis and biological activity of some 15-oxaestranes” (J Med Chem, 1980).

The target of test [1] is T1, Estrogen receptor (Rattus norvegicus) (UniProt P06211+Q62986).
Description: Oral estrogenic activity in uterotropic assay in rats at 100-1000 ng dose
The target in test [2] is T1, Estrogen receptor (Rattus norvegicus). Nature of the test: Oral estrogenic activity in uterotropic assay in rats at 40-400 ng dose. Format: functional.
The target is the same in test [3]. The test is described as follows: Oral estrogenic activity in uterotropic assay in rats at 20-200 ng dose. It counts as functional.
Test [4] has the same target. The test is described as follows: Oral estrogenic activity in uterotropic assay in rats at 40-1000 ng dose. Format: functional.
Test [5] has the same target. This is another data set of the same source.
Description: Oral estrogenic activity in uterotropic assay in rats at 400-4000ng dose

Compound `C#C[C@]1(O)COC2C3CCc4cc(OC)ccc4C3CCC21C` (stereo not given in full) had a Weight in test [1] of -23.9 mg.
Regarding `CC12CCC3c4ccc(O)cc4CCC3C1OCC2=O` (stereo not given), in test [2], the Weight was -32.1 mg.
In test [3], `CC12CCC3c4ccc(O)cc4CCC3C1OC[C@@H]2O` (stereo not given in full) yielded a Weight of -7.8 mg.
As to `CC12CCC3c4ccc(OC5CCCC5)cc4CCC3C1OCC2=O` (stereo not given), the Weight in test [4] is -52.2 mg.
Compound `C[C@]12CC[C@@H]3c4ccc(O)cc4CC[C@H]3[C@@H]1CCC2=O` registered a Weight in test [5] of -120 mg.
